This note sets out measurements from ChEMBL document CHEMBL1146798, “QSAR of adenosine receptor antagonists. Part 3: Exploring physicochemical requirements for selective binding of 1,2,4-triazolo[5,1-i]purine derivatives with human adenosine A3 receptor subtype” (Bioorg Med Chem Lett, 2004).

The data set is described as follows: Partition coefficient (logP). In kind it is physicochemical. Particulars: octanol/water.

As for `CCCCc1nc2[nH]cnc2c2nc(-c3ccc(OCCC)cc3)nn12`, the logP came out at 4.92.
The result for `Cc1nc2[nH]cnc2c2nc(-c3ccccc3)nn12` reads 2.82.
Under `CCCCc1nc2[nH]cnc2c2nc(-c3cc(OC)c(OC)c(OC)c3)nn12` stands 3.85; under `CCCCc1nc2nc[nH]c2c2nc(-c3ccc(O)cc3)nn12`, 3.84; under `CCCCc1nc2nc[nH]c2c2nc(-c3ccc(Br)cc3)nn12`, 5.05.
The result for `CCCCc1nc2[nH]cnc2c2nc(-c3ccc(OC)cc3)nn12` reads 4.1; that for `CCCCc1nc2nc[nH]c2c2nc(-c3cccc(Cl)c3)nn12`, 4.78; that for `CCCCc1nc2[nH]cnc2c2nc(-c3ccc(C(F)(F)F)cc3)nn12`, 5.15.
`CCCCc1nc2[nH]cnc2c2nc(-c3cccnc3)nn12` had a logP of 2.89.
Under `CCCCc1nc2[nH]cnc2c2nc(-c3ccco3)nn12` stands 2.84; under `CCCCc1nc2[nH]cnc2c2nc(C)nn12`, 2.57; under `CCCCCCc1nc2nc[nH]c2c2nc(-c3ccccc3)nn12`, 5.06.
The result for `CCCCCc1nc2nc[nH]c2c2nc(-c3ccccc3)nn12` reads 4.64; that for `CCCCc1nc2[nH]cnc2c2nc(-c3cccc(OC)c3)nn12`, 4.1.
Take `CCCCc1nc2nc[nH]c2c2nc(-c3ccc(OCC)cc3)nn12`: the logP was 4.44.
Under `CCCc1nc2nc[nH]c2c2nc(-c3ccccc3)nn12` stands 3.81; under `CCCCc1nc2nc[nH]c2c2nc(-c3ccc(F)cc3)nn12`, 4.38.
For `CCCCc1nc2[nH]cnc2c2nc(-c3ccccc3)nn12`, the logP turned out to be 4.23.
The result for `CCCCc1nc2[nH]cnc2c2nc(-c3ccc(C)cc3)nn12` reads 4.71.
The result for `CCCCc1nc2nc[nH]c2c2nc(-c3ccc(SC)cc3)nn12` reads 4.66.
Under `c1ccc(-c2nc3c4nc[nH]c4nc(-c4ccccc4)n3n2)cc1` stands 4.2; under `CCc1nc2[nH]cnc2c2nc(-c3ccccc3)nn12`, 3.39; under `CCCCc1nc2nc[nH]c2c2nc(-c3ccccc3Cl)nn12`, 4.78.
Compound `CCCCc1nc2[nH]cnc2c2nc(-c3cccc(C)c3)nn12` displayed a logP of 4.71.
The result for `CCCCc1nc2nc[nH]c2c2nc(-c3ccc(Cl)cc3)nn12` reads 4.78; that for `CCCCc1nc2[nH]cnc2c2nc(-c3ccc(N(C)C)cc3)nn12`, 4.51; that for `CCCCc1nc2[nH]cnc2c2nc(Cc3ccccc3)nn12`, 4.33.
Under `CCCCc1nc2nc[nH]c2c2nc(-c3ccc(-c4ccccc4)cc3)nn12` stands 5.9.
Under `CCCCc1nc2[nH]cnc2c2nc(-c3ccc(C(C)(C)C)cc3)nn12` stands 5.93.
